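Step 1: Grow cells in 96-well plates. Step 2: Expose to compound for 48 hours at 5 concentrations. Step 3: Interpolate endpoints linearly; if unreached, use highest concentration. GI50 marks 50% less growth.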 Calls of active or inactive are those of the source. No stated cut-off is given here; in the data, active = GI50 up to about 1.1 µM and inactive = higher. Where a SMILES comes first, the peptide text is derived from it. The star is where a group is joined. Boc = CC(C)(C)OC(=O)*
Columns and labels:
Experiment in all cases: NCI-60 cell line screen, 48 h
[1] = system: A498
[2] = system: A549
[3] = system: ACHN
[4] = system: BT-549
[5] = system: CAKI-1
[6] = system: CCRF-CEM
[7] = system: HL-60
[8] = system: HT-29
[9] = system: Hs-578T
[10] = system: KM12
[11] = system: LOX IMVI
[12] = system: M14
[13] = system: MCF7
[14] = system: MDA-MB-435
[15] = system: MOLT-4
[16] = system: NCI-H460
[17] = system: RPMI-8226
[18] = system: SK-MEL-5
[19] = system: SNB-19
[20] = system: TK-10

Measured: GI50

Oc1ccc(Br)cc1/C=N/C1CCCCC1
inactive: [1] > 100 µM | [2] > 100 µM | [3] 65.5 µM | [4] 35.3 µM | [5] > 100 µM | [6] 5.37 µM | [7] 4.81 µM | [8] 42.3 µM | [9] 37.7 µM | [10] 29.8 µM | [11] 13.3 µM | [12] 34.8 µM | [13] 14.6 µM | [14] 28.2 µM | [15] 18.8 µM | [16] 71.4 µM | [17] 28.1 µM | [18] 19.2 µM | [19] 53 µM | [20] > 100 µM

OC(NN=C1CCCC1)(C(F)(F)Cl)C(F)(F)Cl
inactive: [1] > 10 µM | [2] > 10 µM | [3] > 10 µM | [4] > 10 µM | [5] > 10 µM | [6] > 10 µM | [7] > 10 µM | [8] > 10 µM | [9] > 10 µM | [10] > 10 µM | [11] > 10 µM | [12] > 10 µM | [13] > 10 µM | [14] > 10 µM | [15] > 10 µM | [16] > 10 µM | [17] > 10 µM | [18] > 10 µM | [19] > 10 µM | [20] > 10 µM

CCCCCCCCCCNC(=O)CCC(NC(=O)c1ccc(N(C)Cc2cnc3nc(N)nc(N)c3n2)cc1)C(=O)NCCCCCCCCCC (stereo not given)
inactive: [1] 30.5 µM | [2] 28.6 µM | [3] 44.7 µM | [4] 9.27 µM | [5] > 100 µM | [6] 2.53 µM | [7] 3.4 µM | [8] 10.5 µM | [9] 3.09 µM | [10] 4.89 µM | [11] 2.36 µM | [12] 8.97 µM | [13] 4.06 µM | [14] 4.2 µM | [15] 2.99 µM | [16] 4.06 µM | [17] 10 µM | [18] 3.9 µM | [19] 9.46 µM | [20] 55.8 µM

COc1ccc(C2=Nn3c(nnc(Cc4ccc(Cl)cc4)c3=O)SC2)cc1
inactive: [1] 30.8 µM | [2] 51.3 µM | [3] 64.7 µM | [4] 41.8 µM | [5] 38.7 µM | [6] 38.3 µM | [7] 32.8 µM | [8] 30.4 µM | [9] 63.5 µM | [10] 35.8 µM | [11] 34.9 µM | [12] 31.5 µM | [13] 27.9 µM | [14] 10.4 µM | [15] 26.7 µM | [16] 37.8 µM | [17] 23.1 µM | [18] 75.3 µM | [19] 53.2 µM | [20] > 100 µM

CCN(CC)CCn1c(=O)c2c(C)c3oc4ccccc4oc3c(C)c2c1=O
inactive: [1] > 100 µM | [2] > 100 µM | [3] > 100 µM | [4] > 100 µM | [5] > 100 µM | [6] > 100 µM | [7] > 100 µM | [8] > 100 µM | [9] > 100 µM | [10] > 100 µM | [11] > 100 µM | [12] > 100 µM | [13] > 100 µM | [14] > 100 µM | [15] > 100 µM | [16] > 100 µM | [17] > 100 µM | [18] > 100 µM | [19] > 100 µM | [20] > 100 µM

CC(C)(C)OC(=O)NCC(=O)NCC(=O)NCC(=O)NCC(=O)O (Boc-GGGG-OH)
inactive: [1] > 100 µM | [2] > 100 µM | [3] > 100 µM | [4] > 100 µM | [5] > 100 µM | [6] > 100 µM | [7] > 100 µM | [8] > 100 µM | [9] 66.1 µM | [10] > 100 µM | [11] > 100 µM | [12] > 100 µM | [13] > 100 µM | [14] > 100 µM | [15] > 100 µM | [16] > 100 µM | [17] > 100 µM | [18] > 100 µM | [19] > 100 µM | [20] > 100 µM

Source: ChEMBL document CHEMBL1201862, “PubChem BioAssay data set” (2004)
